Tests used:
[1] = test system: HT29 human colon carcinoma; experiment: In vitro cytotoxicity, Microculture Tetrazolium Assay, HT29; assay type: cell-based; settings: HT-29, read-out: IC50, the concentration of cytotoxic agent which inhibits the proliferation of the treated cells by 50%
Method: (§1) Four cell lines were used: • L1210 murine leukaemia • A549 human non-small-cell lung carcinoma • HT29 human colon carcinoma • DU145 prostate carcinoma
(§2) L1210 murine leukaemia was used in vitro. The cells are cultured in RPMI 1640 complete culture medium containing 10% foetal calf serum, 2 mM glutamine, 50 units/ml of penicillin, 50 μg/ml of streptomycin and 10 mM Hepes, pH: 7.4. The cells are distributed on microplates and are exposed to the cytotoxic compounds for 4 doubling periods, or 48 hours. The number of viable cells is then quantified by a calorimetric assay, the Microculture Tetrazolium Assay (J. Carmichael et al., Cancer Res.; 47, 936-942 (1987)). The results are expressed as the IC50, the concentration of cytotoxic agent which inhibits the proliferation of the treated cells by 50%.

[2] = test system: DU145 prostate carcinoma; experiment: In vitro cytotoxicity, Microculture Tetrazolium Assay, DU145; assay type: cell-based; settings: Homo sapiens, DU-145, read-out: IC50, the concentration of cytotoxic agent which inhibits the proliferation of the treated cells by 50%
Method: as §1, §2

[3] = test system: L1210 murine leukaemia; experiment: In vitro cytotoxicity, Microculture Tetrazolium Assay, L1210; assay type: cell-based; settings: Mus musculus, exposure 4 doubling periods, or 48 hours, read-out: IC50, the concentration of cytotoxic agent which inhibits the proliferation of the treated cells by 50%
Method: as §1, §2

[4] = test system: A549 human non-small-cell lung carcinoma; experiment: In vitro cytotoxicity, Microculture Tetrazolium Assay, A549; assay type: cell-based; settings: read-out: IC50, the concentration of cytotoxic agent which inhibits the proliferation of the treated cells by 50%
Method: as §1, §2

Row | melting point [°C] | Structure (SMILES) | further results
1 | 218 to 220 | O=C1NC(=O)c2c1c1c3ccccc3[nH]c1c1cccn21 [Example 1, Pyrrolo[3′,4′:5,6]indolizino[8,7-b]indole-1,3(2H,8H)dione] | IC50 [1]: 3300 nM; IC50 [2]: 1400 nM; IC50 [3]: 3100 nM; IC50 [4]: 1990 nM
2 | 226 to 228 | CN1C(=O)c2c(n3cccc3c3[nH]c4ccccc4c23)C1=O [Example 2, 2-Methylpyrrolo[3′,4′:5,6]indolizino[8,7-b]indole-1,3(2H,8H)dione] | –
3 | 275 | O=C1NC(=O)c2c1c1c3cc(OCc4ccccc4)ccc3[nH]c1c1cccn21 [Example 3, 11-(Benzyloxy)pyrrolo[3′,4′:5,6]indolizino[8,7-b]indole-1,3(2H,8H)-dione] | –
4 | > 300 | O=C1NC(=O)c2c1c1c3cc(Br)ccc3[nH]c1c1cccn21 [Example 7, 11-Bromopyrrolo[3′,4′:5,6]indolizino[8,7-b]indole-1,3(2H,8H)-dione] | –
5 | > 300 | CN1C(=O)c2c(n3cccc3c3[nH]c4ccc(Br)cc4c23)C1=O [Example 8, 11-Bromo-2-methylpyrrolo[3′,4′:5,6]indolizino[8,7-b]indole-1,3(2H,8H)-dione] | –
6 | 298 to 304 | O=C1NC(=O)c2c1c1c3cc(Cl)ccc3[nH]c1c1cccn21 [Example 9, 11-Chloropyrrolo[3′,4′:5,6]indolizino[8,7-b]indole-1,3(2H,8H)-dione] | –
7 | 304 to 307 | CN1C(=O)c2c(n3cncc3c3[nH]c4ncccc4c23)C1=O [Example 18, 2-Methylimidazo[1,5-a]pyrido[3′,2′:4,5]pyrrolo[2,3-c]pyrrolo[3,4-e]-Pyridine-1,3(2H,8H)-dione] | –
8 | 222 to 224 | CN1C(=O)C2c3c([nH]c4ncccc34)-c3nccn3C2C1=O (stereo not shown) [Example 19, 6-Methyl-7a,12-dihydroimidazo[1,2-a]pyrido[3′,2′:4,5]pyrrolo[2,3-c]-pyrrolo[3,4-e]pyridine-5,7(4aH,6H)-dione] | –
9 | 204 | CC(=O)OC[C@H]1O[C@@H](n2c3ncccc3c3c4c(n5cncc5c32)C(=O)N(C)C4=O)[C@H](OC(C)=O)[C@@H](OC(C)=O)[C@@H]1OC(C)=O [Example 21, 2-Methyl-8-(2,3,4,6-tetra-O-acetyl-β-D-glucopyranosyl)-imidazo-[1,5-a]pyrido[3′,2′:4,5]pyrrolo[2,3-c]pyrrolo[3,4-e]pyridine-1,3(2H,8H)-dione] | –
